{"source": "patent US20230057984A1", "about": "“NORMALIZATION OF CULTURE OF CORNEAL ENDOTHELIAL CELLS” (KYOTO PREFECTURAL PUBLIC UNIVERSITY CORPORATION, priority 2011, published 2023)", "test_system": "Cynomolgus monkey corneal endothelial cells", "experiment": "Immunostaining of Na+/K+-ATPase and ZO-1 in monkey corneal endothelial cells (Example 3)", "assay_type": "cell-based", "conditions": "monkey CEC treated with SB431542; control lost its staining", "protocol": "Phosphatase inhibitor cocktail 2 (Sigma-Aldrich) and protease inhibitor cocktail (Nacalai Tesque, Inc., Kyoto city) were added to the aforementioned RIPA buffer. The obtained cell lysate was centrifuged (15,000 rpm, 10 minutes) where the supernatant thereof was collected, and the protein was quantitated using a BCA PROTEIN ASSAY KIT (PIERCE (catalog number: 23227)). Dissolution was performed using 100 μl dissolution buffer (Laemmli sample buffer) including 5 mM 2-mercaptoethanol (Nacalai Tesque (catalog number: 21418-42)). • Immunostaining: after washing cells which had reached confluency with PBS (Nissui, catalog number: 5913), the cells were fixed for 10 minutes with iced ethanol (Nacalai Tesque, catalog number: 14713-95) and acetic acid (WAKO catalog number:017-00256) (95:5).\nBlocking was performed via incubation for 1 hour with 0.1% (vol/vol) polyethylene sorbitan monolaurate (Nacalai Tesque, catalog number: 28353-85) (TBS-T) and Tris buffered saline (10 mM Tris-HCl, pH7.4; 100 mM NaCl) with 10% fetal bovine serum. […]\nNext, reaction was allowed for 1 hour at a room temperature with ALEXA FLUOR 488 (INVITROGEN (catalog number: A21206)) and ALEXA FLUOR 594 (INVITROGEN (catalog number: A21203)), diluted with TBS-T by 1,000 fold. […] After washing, bands were detected using an ECL-ADVAVCE Western Blotting Detection Kit (GE healthcare Japan (catalog number: RPN2135V)). […]", "data": [{"smiles": "NC(=O)c1ccc(-c2nc(-c3ccc4c(c3)OCO4)c(-c3ccccn3)[nH]2)cc1", "note": "[SB431542]", "values": [{"measurement": "plasma membrane staining of Na+/K+-ATPase and ZO-1 (immunostaining)", "result": "characteristic plasma membrane staining of Na^+/K^+-ATPase and ZO-1"}]}]}
